According to patent US20230086702A1, “SUBSTITUTED 2-AMINO-PYRAZOLYL-[1,2,4]TRIAZOLO[1,5A]PYRIDINE DERIVATIVES AND USE THEREOF” (The Johns Hopkins University, priority 2019, published 2023):

Legend:
DLK = target: T1, DLK (Homo sapiens, UniProt Q12852); assay: DLK biochemical assay (TR-FRET, MKK7 phosphorylation)
T1 construct: 10 nM DLK, catalytic domain, Carna Biosiences; purchased Carna Biosciences ('Carna Biosiences' [sic])
T1 sequence (Q12852 125-366 limits assumed): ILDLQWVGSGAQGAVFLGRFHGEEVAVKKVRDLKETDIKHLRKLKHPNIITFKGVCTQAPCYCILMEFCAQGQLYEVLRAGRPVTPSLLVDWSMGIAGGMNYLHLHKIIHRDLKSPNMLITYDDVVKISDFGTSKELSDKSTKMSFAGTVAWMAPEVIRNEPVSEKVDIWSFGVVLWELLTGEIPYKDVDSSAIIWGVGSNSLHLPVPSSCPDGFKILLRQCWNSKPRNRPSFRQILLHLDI
Outline: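 TR-FRET read-out (665/Eu ratio) of MKK7 T275/S277 phosphorylation, with inhibition lowering the signal. Final conditions: 10 nM DLK catalytic domain, 15 nM MKK7, 60 μM ATP, 90 min at RT. Detection incubation 16 h at 37° C in 1536-well or 4° C in 384-well format.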

LZK = target: T2, LZK (Homo sapiens, UniProt O43283); assay: LZK biochemical assay (TR-FRET, MKK7 phosphorylation)
T2 construct: 10 nM LZK, catalytic domain, Carna Biosiences in assay buffer; purchased Carna Biosciences ('Carna Biosiences' [sic])
T2 sequence (O43283 168-409 limits assumed): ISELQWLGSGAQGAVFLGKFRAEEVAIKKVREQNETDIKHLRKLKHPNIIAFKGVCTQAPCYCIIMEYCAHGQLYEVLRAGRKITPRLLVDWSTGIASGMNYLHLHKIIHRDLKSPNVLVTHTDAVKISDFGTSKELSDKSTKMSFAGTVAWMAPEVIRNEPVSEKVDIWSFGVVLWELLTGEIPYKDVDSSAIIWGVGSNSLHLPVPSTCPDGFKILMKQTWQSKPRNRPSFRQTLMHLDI
Outline: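 Read-out is HTRF: Eu-labelled anti-phospho-MKK7 (T275/S277) and XL665 anti-His, incubated 16 h at 32 °C, with a drop in signal marking inhibition. Reaction beforehand: 10 nM LZK kinase domain, 15 nM His-MKK7, 15 µM ATP (final) for 90 min at room temperature, pH 7.5.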

Row | IC50 (DLK) [µM] | IC50 (LZK) [µM] | SMILES
1 | 0.056 | 0.12 | CCC(c1ccc(C(F)(F)F)nc1)n1cc(-c2cc(-c3ccc(C(F)(F)F)nc3)c3nc(N)nn3c2)cn1 (single isomer, unassigned) [II-38, 8-[6-(Trifluoromethyl)pyridin-3-yl]-6-(1-{1-[6-(trifluoromethyl)pyridin-3-yl]propyl}-1H-pyrazol-4-yl)[1,2,4]triazolo[1,5-a]pyridin-2-amine]
2 | 0.024 | 0.052 | CCC(c1ccc(C(F)(F)F)nc1)n1cc(-c2cc(-c3ccc(C(F)(F)F)nc3)c3nc(N)nn3c2)cn1 (single isomer, unassigned) [II-39, 8-[6-(Trifluoromethyl)pyridin-3-yl]-6-(1-{1-[6-(trifluoromethyl)pyridin-3-yl]propyl}-1H-pyrazol-4-yl)[1,2,4]triazolo[1,5-a]pyridin-2-amine]
3 | 0.38 | 0.77 | CC(C)C(c1ccc(C(F)(F)F)nc1)n1cc(-c2cc(-c3ccc(C(F)(F)F)nc3)c3nc(N)nn3c2)cn1 (single isomer, unassigned) [II-41, 6-(1-{2-Methyl-1-[6-(trifluoromethyl)pyridin-3-yl]propyl}-1H-pyrazol-4-yl)-8-[6-(trifluoromethyl)pyridin-3-yl][1,2,4]triazolo[1,5-a]pyridin-2-amine]
4 | 0.018 | 0.052 | CC(C)C(c1ccc(C(F)(F)F)nc1)n1cc(-c2cc(-c3ccc(C(F)(F)F)nc3)c3nc(N)nn3c2)cn1 (single isomer, unassigned) [II-42, 6-(1-{2-Methyl-1-[6-(trifluoromethyl)pyridin-3-yl]propyl}-1H-pyrazol-4-yl)-8-[6-(trifluoromethyl)pyridin-3-yl][1,2,4]triazolo[1,5-a]pyridin-2-amine]
5 | 0.06 | 0.1 | CC(C)C(c1ccc(C(F)(F)F)nc1)n1cc(-c2cc(-c3ccc(C4CC4)nc3)c3nc(N)nn3c2)cn1 (single isomer, unassigned) [II-44]
6 | 0.0095 | 0.01 | CC(C)C(c1ccc(C(F)(F)F)nc1)n1cc(-c2cc(-c3ccc(C4CC4)nc3)c3nc(N)nn3c2)cn1 (single isomer, unassigned) [II-45, 8-(6-Cyclopropylpyridin-3-yl)-6-(1-{2-methyl-1-[6-(trifluoromethyl)pyridin-3-yl]propyl}-1H-pyrazol-4-yl)[1,2,4]triazolo[1,5-a]pyridin-2-amine]
7 | 0.28 | 0.27 | CC(C)C(c1ccc(C(F)F)nc1)n1cc(-c2cc(-c3ccc(OC(F)F)nc3)n3nc(N)nc3c2)cn1 (single isomer, unassigned) [II-50, 5-[6-(Difluoromethoxy)pyridin-3-yl]-7-(1-{1-[6-(difluoromethyl)pyridin-3-yl]-2-methylpropyl}-1H-pyrazol-4-yl)[1,2,4]triazolo[1,5-a]pyridin-2-amine]
8 | 0.013 | 0.025 | CC(C)C(c1ccc(C(F)F)nc1)n1cc(-c2cc(-c3ccc(OC(F)F)nc3)n3nc(N)nc3c2)cn1 (single isomer, unassigned) [II-51, 5-[6-(Difluoromethoxy)pyridin-3-yl]-7-(1-{1-[6-(difluoromethyl)pyridin-3-yl]-2-methylpropyl}-1H-pyrazol-4-yl)[1,2,4]triazolo[1,5-a]pyridin-2-amine]
9 | 0.033 | 0.048 | CC(C)C(c1ccc(C(F)F)nc1)n1cc(-c2cc(-c3ccc(C4CC4)nc3)n3nc(N)nc3c2)cn1 (single isomer, unassigned) [II-53, 5-(6-Cyclopropylpyridin-3-yl)-7-(1-{1-[6-(difluoromethyl)pyridin-3-yl]-2-methylpropyl}-1H-pyrazol-4-yl)[1,2,4]triazolo[1,5-a]pyridin-2-amine]
10 | 0.004 | 0.0089 | CC(C)C(c1ccc(C(F)F)nc1)n1cc(-c2cc(-c3ccc(C4CC4)nc3)n3nc(N)nc3c2)cn1 (single isomer, unassigned) [II-54, 5-(6-Cyclopropylpyridin-3-yl)-7-(1-{1-[6-(difluoromethyl)pyridin-3-yl]-2-methylpropyl}-1H-pyrazol-4-yl)[1,2,4]triazolo[1,5-a]pyridin-2-amine]
11 | 0.037 | 0.056 | CCC(c1ccc(C(F)(F)F)nc1)n1cc(-c2cc(-c3ccc(C4CC4)nc3)n3nc(N)nc3c2)cn1 (single isomer, unassigned) [II-56, 5-(6-Cyclopropylpyridin-3-yl)-7-(1-{1-[6-(trifluoromethyl)pyridin-3-yl]propyl}-1H-pyrazol-4-yl)[1,2,4]triazolo[1,5-a]pyridin-2-amine]
12 | 0.018 | 0.014 | CCC(c1ccc(C(F)(F)F)nc1)n1cc(-c2cc(-c3ccc(C4CC4)nc3)n3nc(N)nc3c2)cn1 (single isomer, unassigned) [II-57, 5-(6-Cyclopropylpyridin-3-yl)-7-(1-{1-[6-(trifluoromethyl)pyridin-3-yl]propyl}-1H-pyrazol-4-yl)[1,2,4]triazolo[1,5-a]pyridin-2-amine]
13 | 0.092 | 0.19 | CC(C)C(c1ccc(C(F)(F)F)nc1)n1cc(-c2cc(-c3ccc(C4CC4)nc3)n3nc(N)nc3c2)cn1 (single isomer, unassigned) [II-59, 5-(6-Cyclopropylpyridin-3-yl)-7-(1-{2-methyl-1-[6-(trifluoromethyl)pyridin-3-yl]propyl}-1H-pyrazol-4-yl)[1,2,4]triazolo[1,5-a]pyridin-2-amine]
14 | 0.011 | 0.0079 | CC(C)C(c1ccc(C(F)(F)F)nc1)n1cc(-c2cc(-c3ccc(C4CC4)nc3)n3nc(N)nc3c2)cn1 (single isomer, unassigned) [II-60, 5-(6-Cyclopropylpyridin-3-yl)-7-(1-{2-methyl-1-[6-(trifluoromethyl)pyridin-3-yl]propyl}-1H-pyrazol-4-yl)[1,2,4]triazolo[1,5-a]pyridin-2-amine]
15 | 0.44 | 0.22 | CCC(c1ccc(C(F)F)nc1)n1cc(-c2cc(-c3ccc(C(F)(F)F)nc3)n3nc(N)nc3c2)cn1 (single isomer, unassigned) [II-62, 7-(1-{1-[6-(Difluoromethyl)pyridin-3-yl]propyl}-1H-pyrazol-4-yl)-5-[6-(trifluoromethyl)pyridin-3-yl][1,2,4]triazolo[1,5-a]pyridin-2-amine]
16 | 0.097 | 0.051 | CCC(c1ccc(C(F)F)nc1)n1cc(-c2cc(-c3ccc(C(F)(F)F)nc3)n3nc(N)nc3c2)cn1 (single isomer, unassigned) [II-63, 7-(1-{1-[6-(Difluoromethyl)pyridin-3-yl]propyl}-1H-pyrazol-4-yl)-5-[6-(trifluoromethyl)pyridin-3-yl][1,2,4]triazolo[1,5-a]pyridin-2-amine]
17 | 0.44 | 0.21 | CC(C)C(c1ccc(C(F)F)nc1)n1cc(-c2cc(-c3ccc(C(F)(F)F)nc3)n3nc(N)nc3c2)cn1 (single isomer, unassigned) [II-65, 7-(1-{1-[6-(Difluoromethyl)pyridin-3-yl]-2-methylpropyl}-1H-pyrazol-4-yl)-5-[6-(trifluoromethyl)pyridin-3-yl][1,2,4]triazolo[1,5-a]pyridin-2-amine]
18 | 0.045 | 0.043 | CC(C)C(c1ccc(C(F)F)nc1)n1cc(-c2cc(-c3ccc(C(F)(F)F)nc3)n3nc(N)nc3c2)cn1 (single isomer, unassigned) [II-66, 7-(1-{1-[6-(Difluoromethyl)pyridin-3-yl]-2-methylpropyl}-1H-pyrazol-4-yl)-5-[6-(trifluoromethyl)pyridin-3-yl][1,2,4]triazolo[1,5-a]pyridin-2-amine]
